Reference: ChEMBL document CHEMBL1148888, “Synthesis and antibacterial activity of 5-deoxy-5-episubstituted arbekacin derivatives” (2007)
Values after ≈ are worked out from the molar mass of the structure shown.

Experiments:
Type in all cases: functional
[1] = system: Staphylococcus aureus; test: Antibacterial activity against Staphylococcus aureus 209P JC1 by agar dilution method
[2] = system: Staphylococcus aureus; test: Antibacterial activity against methicillin-resistant Staphylococcus aureus MSC03571 by agar dilution method
[3] = system: Pseudomonas aeruginosa; test: Antibacterial activity against Pseudomonas aeruginosa GN315 by agar dilution method
[4] = system: Staphylococcus aureus; test: Antibacterial activity against methicillin-resistant Staphylococcus aureus MF490 by agar dilution method
[5] = system: Pseudomonas aeruginosa; test: Antibacterial activity against Pseudomonas aeruginosa PAO1 by agar dilution method
[6] = system: Escherichia coli; test: Antibacterial activity against Escherichia coli NIH JC2 by agar dilution method
[7] = system: Pseudomonas aeruginosa; test: Antibacterial activity against Pseudomonas aeruginosa N101 by agar dilution method
[8] = system: Staphylococcus aureus; test: Antibacterial activity against methicillin-resistant Staphylococcus aureus by agar dilution method
[9] = Staphylococcus aureus, 209P JC1, read-out: MIC
[10] = Staphylococcus aureus, read-out: MIC
[11] = Pseudomonas aeruginosa, read-out: MIC
[12] = Pseudomonas aeruginosa, PAO1, read-out: MIC
[13] = Escherichia coli, NIH JC2, read-out: MIC
[14] = Staphylococcus aureus, read-out: MIC50
[15] = Staphylococcus aureus, read-out: MIC90

Structure (SMILES)	MIC [1, 9] [µg/mL]	MIC [2, 10] [µg/mL]	MIC [3, 11] [µg/mL]	MIC [4, 10] [µg/mL]	MIC [5, 12] [µg/mL]	MIC [6, 13] [µg/mL]	MIC [7, 11] [µg/mL]	MIC50 [8, 14] [µg/mL]	MIC90 [8, 15] [µg/mL]	MIC [2] [µg/mL]	MIC [4] [µg/mL]	MIC [7] [µg/mL]	MIC [1] [µg/mL]	MIC [3] [µg/mL]	MIC50 [8] [µg/mL]	MIC90 [8] [µg/mL]	MIC [5] [µg/mL]	MIC [6] [µg/mL]
CN[C@@H]1[C@@H](O)[C@@H](O[C@@H]2[C@H](O)[C@H](O[C@H]3O[C@H](CN)CC[C@H]3N)[C@@H](N)C[C@H]2NC(=O)[C@@H](O)CCN)O[C@H](CO)[C@H]1O	0.13 (≈ 0.229 µM)	16 (≈ 28.2 µM)	32 (≈ 56.5 µM)	4 (≈ 7.06 µM)	2 (≈ 3.53 µM)	2 (≈ 3.53 µM)	–	–	–	–	–	–	–	–	–	–	–	–
NCC[C@H](O)C(=O)N[C@@H]1C[C@H](N)[C@@H](O[C@H]2O[C@H](CN)CC[C@H]2N)[C@@H](Cl)[C@H]1O[C@H]1O[C@H](CO)[C@@H](O)[C@H](N)[C@H]1O	0.1 (≈ 0.175 µM)	6.25 (≈ 10.9 µM)	50 (≈ 87.6 µM)	3.13 (≈ 5.48 µM)	2 (≈ 3.5 µM)	1.56 (≈ 2.73 µM)	0.5 (≈ 0.876 µM)	–	–	–	–	–	–	–	–	–	–	–
NCC[C@H](O)C(=O)N[C@@H]1C[C@H](N)[C@@H](O[C@H]2O[C@H](CN)CC[C@H]2N)[C@@H](N)[C@H]1O[C@H]1O[C@H](CO)[C@@H](O)[C@H](N)[C@H]1O	0.13 (≈ 0.236 µM)	4 (≈ 7.25 µM)	16 (≈ 29 µM)	2 (≈ 3.63 µM)	2 (≈ 3.63 µM)	2 (≈ 3.63 µM)	0.5 (≈ 0.906 µM)	0.5 (≈ 0.906 µM)	0.5 (≈ 0.906 µM)	–	–	–	–	–	–	–	–	–
NCC[C@H](O)C(=O)N[C@@H]1C[C@H](N)[C@@H](O[C@H]2O[C@H](CN)CC[C@H]2N)[C@@H](NCc2ccccc2)[C@H]1O[C@H]1O[C@H](CO)[C@@H](O)[C@H](N)[C@H]1O	0.13 (≈ 0.203 µM)	32 (≈ 49.9 µM)	128 (≈ 199 µM)	8 (≈ 12.5 µM)	32 (≈ 49.9 µM)	4 (≈ 6.23 µM)	1 (≈ 1.56 µM)	–	–	–	–	–	–	–	–	–	–	–
NCCN[C@H]1[C@@H](O[C@H]2O[C@H](CO)[C@@H](O)[C@H](N)[C@H]2O)[C@H](NC(=O)[C@@H](O)CCN)C[C@H](N)[C@H]1O[C@H]1O[C@H](CN)CC[C@H]1N	0.13 (≈ 0.219 µM)	4 (≈ 6.73 µM)	64 (≈ 108 µM)	2 (≈ 3.36 µM)	2 (≈ 3.36 µM)	4 (≈ 6.73 µM)	–	–	–	–	–	–	–	–	–	–	–	–
CN[C@H]1[C@@H](O[C@H]2O[C@H](CO)[C@@H](O)[C@H](N)[C@H]2O)[C@H](NC(=O)[C@@H](O)CCN)C[C@H](N)[C@H]1O[C@H]1O[C@H](CN)CC[C@H]1N	0.25 (≈ 0.442 µM)	16 (≈ 28.3 µM)	128 (≈ 226 µM)	4 (≈ 7.07 µM)	4 (≈ 7.07 µM)	2 (≈ 3.54 µM)	–	–	–	–	–	–	–	–	–	–	–	–
CN(C)[C@H]1[C@@H](O[C@H]2O[C@H](CO)[C@@H](O)[C@H](N)[C@H]2O)[C@H](NC(=O)[C@@H](O)CCN)C[C@H](N)[C@H]1O[C@H]1O[C@H](CN)CC[C@H]1N	1 (≈ 1.73 µM)	> 64	> 32	32 (≈ 55.2 µM)	32 (≈ 55.2 µM)	16 (≈ 27.6 µM)	–	–	–	–	–	–	–	–	–	–	–	–
NCC[C@H](O)C(=O)N[C@@H]1C[C@H](N)[C@@H](O[C@H]2O[C@H](CN)CC[C@H]2N)C(O)[C@H]1O[C@H]1O[C@H](CO)[C@@H](O)[C@H](N)[C@H]1O (single isomer, unassigned; form 1) [ARBEKACIN]	0.06 (≈ 0.109 µM)	–	8 (≈ 14.5 µM)	–	2 (≈ 3.62 µM)	1 (≈ 1.81 µM)	0.25 (≈ 0.452 µM)	0.5 (≈ 0.905 µM)	1 (≈ 1.81 µM)	2 (≈ 3.62 µM)	2 (≈ 3.62 µM)	–	–	–	–	–	–	–
NCC[C@H](O)C(=O)N[C@@H]1C[C@H](N)[C@@H](O[C@H]2O[C@H](CN)CC[C@H]2N)C(O)[C@H]1O[C@H]1O[C@H](CO)[C@@H](O)[C@H](N)[C@H]1O (single isomer, unassigned; form 2) [ARBEKACIN]	–	–	–	–	–	–	–	–	–	16 (≈ 29 µM)	64 (≈ 116 µM)	0.25 (≈ 0.452 µM)	0.06 (≈ 0.109 µM)	16 (≈ 29 µM)	1 (≈ 1.81 µM)	2 (≈ 3.62 µM)	2 (≈ 3.62 µM)	1 (≈ 1.81 µM)
